What was measured:
[1] = target: recombinant human mPGES-1 (Homo sapiens (Human), UniProt O14684); assay: mPGES-1 enzyme assay (HTRF detection of PGE2); assay type: biochemical; conditions: recombinant human mPGES-1 microsomes, PGH2 2 μM, 60 seconds; read-out: mPGES-1 inhibitory effect IC50 in the enzyme assay
Outline: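 Microsomes from E. coli expressing recombinant human mPGES-1 (~0.5 μg protein/well) in 0.1 M phosphate pH 7.4 with 2.5 mM GSH, pre-incubated with compound 25 min at room temperature. PGH2 (2 μM final) added, reaction stopped with FeCl2 after 60 s; PGE2 quantified by HTRF (665/620 ratio) against a calibration curve, IC50 by nonlinear regression after background subtraction.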

mPGES-1 in A549 cells = mPGES-1 in A549 cells (Homo sapiens (Human), UniProt O14684); assay: A549 cell-based assay (PGE2 formation, 50% human serum); conditions: IL-1β 5 ng/ml, 10 nM arachidonic acid, 20-24 h, read-out: mPGES-1 inhibitory effect IC50 in the cell assay
mPGES-1 in A549 cells, sequence (O14684 whole entry): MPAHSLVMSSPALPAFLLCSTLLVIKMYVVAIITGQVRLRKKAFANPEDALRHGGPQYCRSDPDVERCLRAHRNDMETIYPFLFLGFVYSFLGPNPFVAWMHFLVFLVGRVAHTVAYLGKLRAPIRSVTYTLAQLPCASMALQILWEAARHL
Outline: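 A549 cells in F-12K with 50% human serum were stimulated 20-24 h with 5 ng/ml IL-1β and 10 nM arachidonic acid in presence of compound or vehicle. PGE2 in the cell-free medium was measured by HTRF, normalised to vehicle (100%). IC50 from 6-8 point titrations.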

recombinant human mPGES-1, sequence (O14684 whole entry): as above

Row | IC50 [1] | IC50 (mPGES-1 in A549 cells) | Structure (SMILES)
1 | 3 nM | < 1 nM | Cn1c(Nc2c(Cl)ccc(CNC(=O)C(C)(C)C)c2Cl)nc2cc(C(=O)Nc3ccc(OC(F)(F)F)cc3)c(N3CC[C@H](F)C3)cc21 [Example 139]
2 | 2 nM | 5 nM | Cn1c(Nc2c(Cl)ccc(CNC(=O)C(C)(C)F)c2Cl)nc2cc(C(=O)Nc3ccc(OC(F)(F)F)cc3)c(N3CCC(F)(F)CC3)cc21 [Example 140]
3 | 2 nM | 1 nM | Cn1c(Nc2c(Cl)ccc(CNC(=O)C(C)(C)C)c2Cl)nc2cc(C(=O)Nc3ccc(OC(F)(F)F)cc3)c(N3CCOCC3)cc21 [Example 141]
4 | 5 nM | 1 nM | Cc1c(N2CC3CC3C2)c(C(=O)N[C@H]2CC[C@H](C(F)(F)F)CC2)cc2nc(Nc3c(Cl)ccc(CNC(=O)C(C)(C)C)c3Cl)n(C)c12 (stereo partly drawn) [Example 144, N-(trans-4-Trifluoromethyl-cyclohexyl)-2-{2,6-dichloro-3-[(2,2-dimethyl-propionylamino)-methyl]-phenylamino}-6-[3-aza-bicyclo[3.1.0]hex-3-yl]-1,7-dimethyl-1H-benzimidazole-5-carboxylic acid amide]
5 | 3 nM | 2.5 nM | Cn1c(Nc2c(Cl)ccc(CNC(=O)C(C)(C)C)c2Cl)nc2cc(C(=O)N[C@H]3CC[C@H](C(F)(F)F)CC3)c(N3CC[C@@H](F)C3)c(F)c21 [Example 145, (R)—N-(trans-4-Trifluoromethyl-cyclohexyl)-2-{2,6-dichloro-3-[(2,2-dimethyl-propionylamino)-methyl]-phenylamino}-6-[3-fluoro-pyrrolidinyl]-1-methyl-7-fluoro-1H-benzimidazole-5-carboxylic acid amide]
6 | 3 nM | 20 nM | Cn1c(Nc2c(Cl)ccc(CNC(=O)C(C)(C)F)c2Cl)nc2cc(C(=O)NCCC(F)(F)F)c(N3CCC(O)CC3)cc21 [Example 148]
7 | 3 nM | 3 nM | CN(c1cc2c(cc1C(=O)NCCC(F)(F)F)nc(Nc1c(Cl)ccc(CNC(=O)C(C)(C)F)c1Cl)n2C)C1CCC1 [Example 149]
8 | 2 nM | 2 nM | Cn1c(Nc2c(Cl)ccc(CNC(=O)C(C)(C)F)c2Cl)nc2cc(C(=O)NCCC(F)(F)F)c(N3CCCC(C(F)(F)F)C3)cc21 (stereo not drawn) [Example 150]
9 | 2 nM | < 1 nM | Cn1c(Nc2c(Cl)ccc(CNC(=O)C(C)(C)F)c2Cl)nc2cc(C(=O)Nc3ccc(F)c(Cl)c3)c(N3CCC(F)(F)C3)cc21 [Example 154]
10 | 2 nM | 2 nM | Cn1c(Nc2c(Cl)ccc(CNC(=O)C3(C)CC3)c2Cl)nc2cc(C(=O)Nc3ccc(OC(F)(F)F)cc3)c(N3CC[C@@H](F)C3)cc21 [Example 156]
11 | 4 nM | 4 nM | Cc1nc(C(F)(F)F)c(CNC(=O)c2cc3nc(Nc4c(Cl)ccc(CNC(=O)C(C)(C)C)c4Cl)n(C)c3cc2N2CCC(C(F)(F)F)CC2)s1 [Example 158]
12 | 3 nM | 4 nM | Cn1c(Nc2c(Cl)ccc(CNC(=O)C(C)(C)C)c2Cl)nc2cc(C(=O)Nc3cc(C(C)(C)C)on3)c(N3CCC(C(F)(F)F)CC3)cc21 [Example 159]
13 | 4 nM | 3 nM | Cn1c(Nc2c(Cl)ccc(CNC(=O)C(C)(C)C)c2Cl)nc2cc(C(=O)Nc3cc(C(C)(C)CO)no3)c(N3CCC(C(F)(F)F)CC3)cc21 [Example 160]
14 | 3 nM | 3 nM | Cn1c(Nc2c(Cl)ccc(CNC(=O)C(C)(C)C)c2Cl)nc2cc(C(=O)Nc3nc(C(F)(F)F)cs3)c(N3CCC(C(F)(F)F)CC3)cc21 [Example 161]
15 | 3 nM | 2 nM | Cn1c(Nc2c(Cl)ccc(CNC(=O)C(C)(C)C)c2Cl)nc2cc(C(=O)Nc3nnc(C(C)(C)C)s3)c(N3CCC(C(F)(F)F)CC3)cc21 [Example 162]
16 | 4 nM | 7 nM | CC(C)(C)C(=O)NCc1ccc(Cl)c(Nc2nc3cc(C(=O)N[C@H]4CC[C@H](C(F)(F)F)CC4)c(N4CC5CC5C4)cc3n2C2(C(C)(C)O)CC2)c1Cl (stereo partly drawn) [Example 164]
17 | 2 nM | 3 nM | CC(C)(O)Cn1c(Nc2c(Cl)ccc(CNC(=O)C(C)(C)C)c2Cl)nc2cc(C(=O)N[C@H]3CC[C@H](C(F)(F)F)CC3)c(N3CCC(C(F)(F)F)CC3)cc21 [Example 165]
18 | 2 nM | 12 nM | CC(C)(O)Cn1c(Nc2c(Cl)ccc(CNC(=O)C(C)(C)C)c2Cl)nc2cc(C(=O)Nc3ccc(OC(F)(F)F)cc3)c(N3CCOCC3)cc21 [Example 166, N-(4-Trifluoromethoxy-phenyl)-2-{2,6-dichloro-3-[(2,2-dimethyl-propionylamino)-methyl]-phenylamino}-6-[morpholinyl]-1-(2-hydroxy-2-methyl-propyl)-1H-benzimidazole-5-carboxylic acid amide]
19 | 2 nM | 2 nM | Cn1c(Nc2c(Cl)ccc(CNC(=O)c3ccc(O)cc3F)c2Cl)nc2cc(C(=O)NCCC(F)(F)F)c(N3CCC(C(F)(F)F)CC3)cc21 [Example 173]

Row | IC50 [1] | IC50 (mPGES-1 in A549 cells) | Structure (SMILES)
20 | 4 nM | 7 nM | Cn1c(Nc2c(Cl)ccc(CNC(=O)C(C)(C)CO)c2Cl)nc2cc(C(=O)NCCC(F)(F)F)c(N3CCC(C(F)(F)F)CC3)cc21 [Example 175]
21 | 4 nM | 34 nM | Cn1c(Nc2c(Cl)ccc(CNC(=O)c3c(N)cccc3Cl)c2Cl)nc2cc(C(=O)NCCC(F)(F)F)c(N3CCC(C(F)(F)F)CC3)cc21 [Example 176]
22 | 2 nM | 3 nM | Cn1c(Nc2c(Cl)ccc(CNC(=O)c3ccc(N)cc3Cl)c2Cl)nc2cc(C(=O)NCCC(F)(F)F)c(N3CCC(C(F)(F)F)CC3)cc21 [Example 177]
23 | 5 nM | 28 nM | Cn1c(Nc2c(Cl)ccc(CNC(=O)c3cccc(O)c3)c2Cl)nc2cc(C(=O)NCCC(F)(F)F)c(N3CCC(C(F)(F)F)CC3)cc21 [Example 178]
24 | 2 nM | > 100 nM | Cn1c(Nc2c(Cl)ccc(CNC(=O)c3c(O)cccc3F)c2Cl)nc2cc(C(=O)NCCC(F)(F)F)c(N3CCC(C(F)(F)F)CC3)cc21 [Example 179]
25 | 2 nM | 7 nM | Cn1c(Nc2c(Cl)ccc(CNC(=O)c3nccs3)c2Cl)nc2cc(C(=O)NCCC(F)(F)F)c(N3CCC(C(F)(F)F)CC3)cc21 [Example 182]
26 | 1.7 nM | 1.4 nM | Cn1c(Nc2c(Cl)ccc(CNC(=O)C(C)(C)C(F)(F)F)c2Cl)nc2cc(C(=O)Nc3ccc(F)c(Cl)c3)c(N3CCC(C(F)(F)F)CC3)cc21 [Example 232]
27 | 3.9 nM | 1 nM | Cn1c(Nc2c(Cl)ccc(CNC(=O)[C@@](C)(O)C(F)(F)F)c2Cl)nc2cc(C(=O)Nc3ccc(F)c(Cl)c3)c(N3CCC(C(F)(F)F)CC3)cc21 [Example 233]
28 | 3.1 nM | 8 nM | Cn1c(Nc2c(Cl)ccc(CNC(=O)[C@](C)(O)C(F)(F)F)c2Cl)nc2cc(C(=O)Nc3ccc(F)c(Cl)c3)c(N3CCC(C(F)(F)F)CC3)cc21 [Example 234]
29 | 3.9 nM | 4.4 nM | Cn1c(Nc2c(Cl)ccc(CNC(=O)C(C)(C)F)c2Cl)nc2cc(C(=O)Nc3ccc(F)c(Cl)c3)c(N3CC[C@@H](F)C3)cc21 [Example 235]
30 | 3.3 nM | 2 nM | Cn1c(Nc2c(Cl)ccc(CNC(=O)C(C)(C)C(F)(F)F)c2Cl)nc2cc(C(=O)Nc3ccc(F)c(Cl)c3)c(N3CC[C@@H](F)C3)cc21 [Example 236]
31 | 1.8 nM | < 1 nM | Cn1c(Nc2c(Cl)ccc(CNC(=O)C(C)(C)F)c2Cl)nc2cc(C(=O)Nc3ccc(OC(F)(F)F)cc3)c(N3CCC(C(F)(F)F)CC3)cc21 [Example 237]
32 | 2.2 nM | 2 nM | Cn1c(Nc2c(Cl)ccc(CNC(=O)C(C)(C)C(F)(F)F)c2Cl)nc2cc(C(=O)Nc3ccc(OC(F)(F)F)cc3)c(N3CCC(C(F)(F)F)CC3)cc21 [Example 238]
33 | 3.5 nM | 5 nM | Cn1c(Nc2c(Cl)ccc(CNC(=O)C(C)(C)F)c2Cl)nc2cc(C(=O)Nc3ccc(OC(F)(F)F)cc3)c(N3CC[C@@H](F)C3)cc21 [Example 239]
34 | 4.9 nM | 2 nM | Cn1c(Nc2c(Cl)ccc(CNC(=O)C(C)(C)C(F)(F)F)c2Cl)nc2cc(C(=O)Nc3ccc(OC(F)(F)F)cc3)c(N3CC[C@@H](F)C3)cc21 [Example 240]
35 | 3.5 nM | < 1 nM | Cn1c(Nc2c(Cl)ccc(CNC(=O)C(C)(C)C)c2Cl)nc2cc(C(=O)Nc3ccc(OC(F)(F)F)cc3)c(N3CC[C@@H](F)C3)cc21 [Example 241]
36 | 1.7 nM | 5 nM | Cn1c(Nc2c(Cl)ccc(CNC(=O)C(C)(C)F)c2Cl)nc2cc(C(=O)Nc3cccc(C(F)(F)F)n3)c(N3CCC(C(F)(F)F)CC3)cc21 [Example 242]
37 | 2.9 nM | 4.5 nM | Cn1c(Nc2c(Cl)ccc(CNC(=O)[C@@](C)(O)C(F)(F)F)c2Cl)nc2cc(C(=O)Nc3cccc(C(F)(F)F)n3)c(N3CCC(C(F)(F)F)CC3)cc21 [Example 243]
38 | 4.2 nM | 27 nM | Cn1c(Nc2c(Cl)ccc(CNC(=O)[C@](C)(O)C(F)(F)F)c2Cl)nc2cc(C(=O)Nc3cccc(C(F)(F)F)n3)c(N3CCC(C(F)(F)F)CC3)cc21 [Example 244]

Row | Structure (SMILES) | IC50 [1] | IC50 (mPGES-1 in A549 cells)
39 | Cn1c(Nc2c(Cl)ccc(CNC(=O)C(C)(C)F)c2Cl)nc2cc(C(=O)Nc3ccc(F)c(Cl)c3)c(N3CCC(C(F)(F)F)CC3)cc21 [Example 231, N-(3-Chloro-4-fluoro-phenyl)-2-{2,6-dichloro-3-[(2-fluoro-2-methyl-propionylamino)-methyl]-phenylamino}-6-[4-trifluoromethyl-piperidinyl]-1-methyl-1H-benzimidazole-5-carboxylic acid amide] | 2 nM | 1.1 nM

From US8674113B2, “Compounds” (Boehringer Ingelheim International GmbH, priority 2010, dated 2014)
